# Experimental data taken from PubChem BioAssay (NCI).
# “And” between values parts separate entries of the source, which are not always exact repeats. Identical values can stand only once.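 Results reflect a 48-hour exposure of cells in 96-well plates to compound at five concentrations. GI50 marks 50% less growth. At the TGI there is no net growth.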
# Key:
# Test in all cases: growth of human tumour cells (NCI), 48 h
# SK-MEL-2 melanoma = tested on: SK-MEL-2 melanoma
# NCI-H226 lung = tested on: NCI-H226 lung
# SF-295 CNS = tested on: SF-295 CNS
# UACC-62 melanoma = tested on: UACC-62 melanoma
# SF-539 CNS = tested on: SF-539 CNS
# HL-60(TB) leukemia = tested on: HL-60(TB) leukemia
# ACHN renal = tested on: ACHN renal
# A498 renal = tested on: A498 renal
# MDA-MB-231 breast = tested on: MDA-MB-231 breast
# NCI/ADR-RES ovarian = tested on: NCI/ADR-RES ovarian
SMILES,TGI (SK-MEL-2 melanoma),TGI (NCI-H226 lung) [µM],TGI (SF-295 CNS) [µM],TGI (UACC-62 melanoma),TGI (SF-539 CNS),TGI (HL-60(TB) leukemia) [µM],TGI (ACHN renal),TGI (A498 renal) [µM],GI50 (SK-MEL-2 melanoma) [µM],GI50 (NCI-H226 lung) [µM],GI50 (SF-295 CNS) [µM],GI50 (UACC-62 melanoma) [µM],GI50 (SF-539 CNS) [µM],GI50 (A498 renal) [µM],GI50 (HL-60(TB) leukemia) [µM],GI50 (ACHN renal) [µM],TGI (MDA-MB-231 breast) [µM],GI50 (NCI/ADR-RES ovarian) [µM],TGI (NCI/ADR-RES ovarian) [µM],GI50 (MDA-MB-231 breast) [µM]
CC(=O)c1sc(-c2nc(C)c(C(=O)/C=C\c3ccc(/C=C\C(=O)c4sc(-c5nc(C)c(C(C)=O)s5)nc4C)cc3)s2)nc1C,> 100 µM,> 100,> 100,> 100 µM,> 100 µM,> 100,> 100 µM,,,,,,,,,,,,,
CC1(C)O/C(=C\c2ccccc2)C(=O)/C(=C/c2ccccc2)O1,56.7 µM,96.3,> 100,> 100 µM,> 100 µM,29.4,> 100 µM,> 100,,,,,,,,,,,,
CN[C@@H](C)[C@H](NC)c1ccccc1,,> 100,> 100,> 100 µM,> 100 µM,> 100,,,,,,,,,,,,,,
CCOC(=N)CC(=O)Nc1cccc(C)c1C,> 100 µM,> 100,> 100,> 100 µM,> 100 µM,> 100,> 100 µM,> 100,,,,,,,,,,,,
Cc1cc(NS(=O)(=O)c2ccc(Nc3c4ccccc4nc4c(C(=O)NCCN(C)C)cccc34)cc2)no1,,2.92,47.5,14.4 µM,15.2 µM,0.472,19 µM,,,,,,,,,,,,,
COc1cccc(-n2c3nc(=O)n(C)c(=O)c-3nc3ccccc32)c1,56 µM,55.6,29.2,19.5 µM,27.8 µM,28.2,47.3 µM,> 100,,,,,,,,,,,,
COc1ccc(C2c3cc(OC)c(OC)cc3C(Cc3ccc([N+](=O)[O-])cc3)C2c2ccc([N+](=O)[O-])cc2)cc1OC (centres undefined),> 100 µM,> 100,> 100,> 100 µM,> 100 µM,> 100,> 100 µM,> 100,,,,,,,,,,,,
Nc1ccn(C2(CO)C=C(CO)C(O)C2O)c(=O)n1 (centres undefined),> 25.8 µM,> 25.8,,> 25.8 µM,> 25.8 µM,> 25.8,> 25.8 µM,> 25.8,,,,,,,,,,,,
COC(=O)/C(C)=C/[N+](=O)[O-],38.7 µM,,30.3,32.8 µM,33.2 µM,40.1,35.5 µM,43.3,,,,,,,,,,,,
O=S1OC2(c3ccccc3-c3ccccc32)c2ccccc21 (centres undefined),,> 100,> 100,> 100 µM,> 100 µM,> 100,> 100 µM,> 100,,,,,,,,,,,,
C1C[OH+]CCNCC[OH+]CC[OH+]CCN1.[Cl-].[Pt+4],> 100 µM,> 100,> 100,> 100 µM,> 100 µM,> 100,> 100 µM,> 100,> 100,> 100,> 100,> 100,> 100,> 100,> 100,> 100,,,,
C=C1C(=O)O[C@H]2/C=C(/C)C3=CC(=O)[C@@](C)(C[C@@H](OC(=O)/C(C)=C\C)C12)O3 (some centres undefined),16.6 µM,11.1,29.3,3.36 µM,8.22 µM,,0.958 µM,> 41.4,,,,,,,,,11.5,,,
CCCCOC(=O)NC(=O)c1cn(CCCOC(=O)NCCCCCCNC(=O)OCCCn2cc(C(=O)NC(=O)OCCCC)c(=O)[nH]c2=O)c(=O)[nH]c1=O,> 100 µM,,> 100,> 100 µM,> 100 µM,> 100,> 100 µM,> 100,,,,,,,,,,,,
C=C1C[C@]23CCC4C(C)(C)C(=O)CC[C@]4(C)C2C[C@H]1C(O)C3=O (some centres undefined),> 75 µM,> 75,> 75,> 75 µM,> 75 µM,> 75,> 75 µM,> 75,,,,,,,,,,,,
O=C1CC2C(=O)N(Cc3ccccc3)C1C=C2S(=O)(=O)c1ccccc1 (centres undefined),,> 100,> 100,> 100 µM,> 100 µM,> 100,> 100 µM,> 100,,,,,,,,,,,,
CC(C)CCCC(C)[C@H]1CCC2[C@H]3C(CC[C@@]21C)[C@@]1(C)CCC=C[C@]12C[C@@H]2[C@@H]3O (some centres undefined),,> 100,> 100,> 100 µM,> 100 µM,> 100,> 100 µM,> 100,,,,,,,,,,,,
COC(=O)CCC(=O)CC1CC(=O)C2CCCN12 (centres undefined),> 100 µM,> 100,> 100,> 100 µM,> 100 µM,> 100,> 100 µM,> 100,,,,,,,,,,,,

SMILES,TGI (SK-MEL-2 melanoma),TGI (NCI-H226 lung) [µM],TGI (SF-295 CNS) [µM],TGI (UACC-62 melanoma),TGI (SF-539 CNS),TGI (HL-60(TB) leukemia) [µM],TGI (ACHN renal),TGI (A498 renal) [µM],GI50 (SK-MEL-2 melanoma) [µM],GI50 (NCI-H226 lung) [µM],GI50 (SF-295 CNS) [µM],GI50 (UACC-62 melanoma) [µM],GI50 (SF-539 CNS) [µM],GI50 (A498 renal) [µM],GI50 (HL-60(TB) leukemia) [µM],GI50 (ACHN renal) [µM],TGI (MDA-MB-231 breast) [µM],GI50 (NCI/ADR-RES ovarian) [µM],TGI (NCI/ADR-RES ovarian) [µM],GI50 (MDA-MB-231 breast) [µM]
Cc1ccc(C2(O)CC(c3ccc([N+](=O)[O-])o3)=NN2C(=O)COc2ccc(Cl)cc2)cc1 (centres undefined),16.1 µM,39.7,27.6,15.1 µM,15.4 µM,,43.1 µM,22.2,,,,,,,,,,,,
COC(=O)/C(C=O)=C/Sc1ccccc1,91.8 µM,44.6,> 100,77.8 µM,33.2 µM,> 100,> 100 µM,,,,,,,,,,,,,
CN(C)C(=S)/N=c1\ss/c(=N\C(=S)N(C)C)n1-c1ccc(Cl)c(Cl)c1,> 100 µM,> 100,> 100,> 100 µM,> 100 µM,> 100,> 100 µM,> 100,,,,,,,,,,,,
COC(=O)/C(C#N)=C1\CCC(O)N1 (centres undefined),> 100 µM,> 100,> 100,> 100 µM,> 100 µM,> 100,> 100 µM,,,,,,,,,,,,,
N.N.N.N.[Cl-].[Co+3].[N-]=[N+]=[N-].[N-]=[N+]=[N-],> 100 µM,,> 100,> 100 µM,> 100 µM,> 100,> 100 µM,> 100,> 100,,> 100,> 100,48.8,> 100,74.3,50.5,,,,
COc1ccc2[nH]c3c4c(ccc3c2c1)C(=O)C=CC4=O,28.5 µM,49.9,53.9,36 µM,32.2 µM,1.11,15 µM,48.4,,,,,,,,,35.4,,,
COc1cc2ccc3c4cc(OC)c(OC(C)C)cc4cnc3c2cc1OC,> 100 µM,> 100,> 100,> 100 µM,> 100 µM,> 100,> 100 µM,,,,,,,,,,,,,
CC1=NN(C(=O)CC(=O)N(C(=O)c2ccccc2Cl)c2ccc(C)cc2)C(=O)C1N=Nc1ccc([N+](=O)[O-])cc1 (centres undefined),> 100 µM,> 100,> 100,> 53.7 µM,51.4 µM,> 68.8,> 100 µM,> 100,,,,,,,,,,,,
COc1ccc(-c2ccc(/C=N/n3c(C)n[nH]c3=S)o2)c([N+](=O)[O-])c1,,,> 100,> 100 µM,> 100 µM,> 100,> 100 µM,> 100,,,36.3,> 100,39.4,> 100,> 100,93,,> 100,> 100,
COc1cc2cccc(N=Cc3cccc(OC)c3OC(C)C)c2cc1OC,48.6 µM,,41.2,45.6 µM,,,> 100 µM,> 100,,,,,,,,,,,,
C[C@@]12CCCc3coc(c31)C(=O)c1cc3c(cc12)C(=O)C=CC3=O,> 1 µM and 29 µM,> 1,> 1,> 1 µM and 32.1 µM,> 1 µM and 30.1 µM,> 100,> 1 µM and 25.4 µM,> 100,> 1,,,> 1,< 1,,> 1,> 1,,,,
O=C1[C@H]2ON(c3ccccc3)C(c3ccc(Cl)cc3)[C@H]2C(=O)N1c1ccc(Cc2ccc(N3C(=O)[C@@H]4ON(c5ccccc5)C(c5ccc(Cl)cc5)[C@@H]4C3=O)cc2)cc1 (some centres undefined),> 100 µM,> 100,> 100,> 100 µM,> 100 µM,> 100,> 100 µM,> 100,,,,,,,,,,,,
N#C/C(=C/N1CCN(C(=O)c2ccco2)C1=S)C(=O)c1ccccc1,15.8 µM,,> 100,30.3 µM,5.39 µM,91.5,72.5 µM,,3.68,,43.6,12.9,2.21,,31.5,16.6,40.8,,,13.7
C=CCNC(=O)N(CCC)CCCCC(NC(C)=O)C(=O)NCc1ccccc1 (centres undefined),> 100 µM,> 100,> 100,> 100 µM,> 100 µM,> 100,> 100 µM,> 100,,,,,,,,,,,,
CC(=O)/C=C/c1ccc(C#Cc2ccccc2)s1,35.4 µM,36.4,42.7,31.5 µM,31 µM,,29.8 µM,,20.5,18.4,19.1,17.5,17.3,,,16.3,28.2,15.8,33.9,15
O=C(Nc1cc(Cl)ccc1Cl)C(=O)C(c1cnc2ccccc2n1)[N+](=O)[O-] (centres undefined),,> 100,> 100,> 100 µM,> 100 µM,> 100,> 100 µM,> 100,,,,,,,,,,,,
